According to patent publication US20080262108A1, “Method” (priority 2004, published 2008):

B1: interferon-gamma (protein, UniProt P01579 24-161, looked up)
Interferon gamma: QDPYVKEAENLKKYFNAGHSDVADNGTLFLGILKNWKEESDRKIMQSQIVSFYFKLFKNFKDDQSIQKSVETIKEDMNVKFFNSNKKKRDDFEKLTNYSVTDLNVQRKAIHELIQVMAELSPAAKTGKRKRSQMLFRG
notes: interferon-gamma (Sigma Aldrich) used as stimulus on macrophages

What was measured:
[1] = system: CEL; experiment: CEL expression at the protein level in treated macrophages (Western blot); assay type: cell-based, human; conditions: monocyte-derived macrophages cultured for 7 days, treated for 24 hours; LPS 1 μg/ml, IFN-γ 200 U/ml, oxLDL 50 μg protein/ml; cells from four donors; FIG. 4B
Experimental: Macrophage cell culture. Mononuclear cells were isolated through a Ficoll-Hypaque discontinuous gradient (Boyum et al. 1976) from buffy coats obtained from the local blood bank (Sahlgrenska University Hospital, Göteborg, Sweden). The cells were resuspended in RPMI 1640 medium (PM Laboratories GmbH, Pasching, Austria) supplemented with 2 mmol/l glutamine, 2 mmol/l nonessential amino acids, 100 U/ml penicillin, 100 μg/ml streptomycin, and 20 mmol/l sodium pyruvate. Monocytes were obtained by allowing cells to adhere to plastic for 60 min at 37° C. Non-adhered cells were removed by washing with PBS and the adhered monocytes were used immediately or after 4 hours for experiments or left to differentiate into macrophages in supplemented RPMI1640 containing 20% heat-inactivated human serum for up to 9 days. Macrophages were then approximately 95% pure, as judged by flow cytometry. […] The viability of cells was >95% in all incubations, as determined by Trypan blue exclusion.
Exposure of macrophages to oxidatively modified LDL. […] Protein concentration of lipoproteins was determined with the BioRad protein assay using γ-globulin as standard.
Western blot analysis. […] The primary antibodies were detected with POD-conjugated secondary IgG and ECL™ Western Blotting Detection Reagents (Amersham Biosciences), visualized on ECL™ films (Amersham Biosciences).

[2] = system: CEL; experiment: CEL expression at the mRNA level in treated macrophages (RT-PCR); assay type: cell-based, human; conditions: monocyte-derived macrophages cultured for 7 days, treated for 24 hours; LPS 1 μg/ml, IFN-γ 200 U/ml, oxLDL 50 μg protein/ml; cells from four donors; FIG. 4C
Experimental: Macrophage cell culture. Mononuclear cells were isolated through a Ficoll-Hypaque discontinuous gradient (Boyum et al. 1976) from buffy coats obtained from the local blood bank (Sahlgrenska University Hospital, Göteborg, Sweden). The cells were resuspended in RPMI 1640 medium (PM Laboratories GmbH, Pasching, Austria) supplemented with 2 mmol/l glutamine, 2 mmol/l nonessential amino acids, 100 U/ml penicillin, 100 μg/ml streptomycin, and 20 mmol/l sodium pyruvate. Monocytes were obtained by allowing cells to adhere to plastic for 60 min at 37° C. Non-adhered cells were removed by washing with PBS and the adhered monocytes were used immediately or after 4 hours for experiments or left to differentiate into macrophages in supplemented RPMI1640 containing 20% heat-inactivated human serum for up to 9 days. Macrophages were then approximately 95% pure, as judged by flow cytometry. For experiments the cells were incubated for 24 h with supplemented RPMI1640 (pH 7.4) with 1 μg/mL lipopolysaccaride (LPS), interferon-gamma (γ-IFN) 200 U/mL (Sigma Aldrich, Stockholm, Sweden). The viability of cells was >95% in all incubations, as determined by Trypan blue exclusion.
Exposure of macrophages to oxidatively modified LDL. […] Protein concentration of lipoproteins was determined with the BioRad protein assay using γ-globulin as standard. […]

Row | Molecule | CEL expression at the protein level [1] | CEL expression at the mRNA level [2]
1 | lipopolysaccharide [LPS] | could not detect any consistent increase or decrease in CEL expression | could not detect any consistent increase or decrease in CEL expression
2 | B1 | could not detect any consistent increase or decrease in CEL expression | could not detect any consistent increase or decrease in CEL expression
